Source: patent publication US20090291066A1, “COMPOSITION AND METHOD OF TREATING FACIAL SKIN DEFECT” (priority 2008, published 2009)

Experiments:
[1] = test system: facial preadipocytes; test: Differentiation of human primary facial preadipocytes (lipid droplet formation, oil red O); assay type: cell-based; details: cell source not given
Description: Human primary preadipocytes from facial and abdominal skin samples, obtained with informed consent, were isolated and cultured following a published procedure (Crandall et al, Endocrinology 140:154-8, 1999). Briefly, samples from abdominal or facial operations were subjected to enzymatic digestion in Krebs-Ringer-bicarbonate buffer (pH 7.4) containing 6 mM glucose and 2 mg/mL collagenase. After this initial enzymatic digestion, the content of the flask was passed through a sterile, 230-micron stainless steel tissue sieve (Cellector, Bellco Glass Inc., Vineland, N.J.) into a 50-mL sterile, plastic test tube. […]
All differentiation agents (IBMX, dexamethasone, insulin, and rosiglitazone) were added to the culture media 24 hours after the cells were seeded. […] Subsequently, the cultures were incubated with oil red O (a dye that binds to neutral lipids); the dye was then extracted and quantified by spectrophotometry. […]
Human primary preadipocytes were isolated and cultured as described in Example 2. […] Subsequently, the cultures were incubated with oil red O (a dye that binds to neutral lipids); the dye was then extracted and quantified by spectrophotometry. […]

[2] = test system: serum proteins; details: in vivo; cited from earlier work

Compound | adipogenesis of preadipocytes ([1]; added in the media at 5-50 μM in addition to IBMX, insulin and dexamethasone) | effect on the differentiation process ([1]; alone, without IBMX and dexamethasone) | bound to serum proteins [2]
CCCCC/C=C\C/C=C\CCCCCCCC(=O)O [Linoleic acid, linoleic acid] | can enhance adipogenesis of preadipocytes | could not affect the differentiation process | –
CN(CCOc1ccc(CC2SC(=O)NC2=O)cc1)c1ccccn1 (stereo not drawn) [Rosiglitazone, rosiglitazone] | – | – | 99.8%
